According to PubChem BioAssay AID256 (DTP/NCI, 2004):
“And” between values parts separate entries of the source, which are not always exact repeats. Equal entries are not always repeated. Toxic doses and inconclusive results are not listed. The calls were made as follows: active = survival T/C of 150% or more; inactive = T/C below 125% in these data.

Tested on: CD2F1 mice, L1210 leukemia ip, survival T/C
Experiment: NCI In Vivo Anticancer Drug Screen. Data for tumor model L1210 Leukemia (intraperitoneal) in CD2F1 (CDF1) mice
Conditions: higher = longer survival
Summary of the method: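 Compound-dosed mice with transplantable tumor versus matched vehicle controls; endpoint ratio T/C reported.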

[1] = endpoint: mean survival time, dose: 400.0 mg/kg/injection, schedule: Q01DX009 (ip), vehicle: Klucel (hydroxypropylcellulose) (HPC)
[2] = endpoint: mean survival time, dose: 100.0 mg/kg/injection, schedule: Q04DX003 (ip), vehicle: saline
[3] = endpoint: mean survival time, dose: 50.0 mg/kg/injection, schedule: Q01DX009 (ip), vehicle: saline with Tween-80
[4] = endpoint: mean survival time, dose: 100.0 mg/kg/injection, schedule: Q01DX009 (ip), vehicle: saline with Tween-80
[5] = endpoint: mean survival time, dose: 200.0 mg/kg/injection, schedule: Q01DX009 (ip), vehicle: saline with Tween-80
[6] = endpoint: mean survival time, dose: 100.0 mg/kg/injection, schedule: Q04DX003 (ip), vehicle: saline with Tween-80
[7] = endpoint: mean survival time, dose: 200.0 mg/kg/injection, schedule: Q04DX003 (ip), vehicle: saline with Tween-80
[8] = endpoint: mean survival time, dose: 400.0 mg/kg/injection, schedule: Q01DX009 (ip), vehicle: saline with Tween-80
[9] = endpoint: mean survival time, dose: 400.0 mg/kg/injection, schedule: Q04DX003 (ip), vehicle: saline with Tween-80

Measured: T/C

CCCCC(C)(C(=O)OCC)C(=O)OCC
inactive: endpoint: mean survival time, dose: 12.5 mg/kg/injection, schedule: Q01DX009 (ip), vehicle: Klucel (hydroxypropylcellulose) (HPC) 98 % of control | endpoint: mean survival time, dose: 25.0 mg/kg/injection, schedule: Q01DX009 (ip), vehicle: Klucel (hydroxypropylcellulose) (HPC) 98 % of control | endpoint: mean survival time, dose: 50.0 mg/kg/injection, schedule: Q01DX009 (ip), vehicle: Klucel (hydroxypropylcellulose) (HPC) 108 % of control | endpoint: mean survival time, dose: 100.0 mg/kg/injection, schedule: Q01DX009 (ip), vehicle: Klucel (hydroxypropylcellulose) (HPC) 98 % of control | endpoint: mean survival time, dose: 200.0 mg/kg/injection, schedule: Q01DX009 (ip), vehicle: Klucel (hydroxypropylcellulose) (HPC) 98 % of control | [1] 106 % of control

C=CC1CC[N-]CC1.C=CC1CC[N-]CC1.C=CC1CC[N-]CC1.[Cl][Cr]([Cl])[Cl]
inactive: [2] 102 % of control

C1=CC2C3C=CC(C3)C2C1 (centres undefined)
inactive: [3] 94 % of control | [4] 93 % of control | [5] 98 % of control

O=c1cn[nH]c2cc(Cl)ccc12
inactive: [4] 91 % of control | [6] 100 % of control | [5] 101 % of control | [7] 105 % of control | [8] 92 % of control | [9] 97 % of control

S=c1[nH]c2ccccc2[nH]c1=S
inactive: endpoint: mean survival time, dose: 10.0 mg/kg/injection, schedule: Q01DX001 (ip), vehicle: Klucel (hydroxypropylcellulose) (HPC) 103 % of control | endpoint: mean survival time, dose: 20.0 mg/kg/injection, schedule: Q01DX001 (ip), vehicle: Klucel (hydroxypropylcellulose) (HPC) 108 % of control

CC(CCC(=O)O)(c1cc(Br)c(O)c(Br)c1)c1cc(Br)c(O)c(Br)c1
inactive: endpoint: mean survival time, dose: 100.0 mg/kg/injection, schedule: Q01DX009 (ip), vehicle: other 96 % of control | endpoint: mean survival time, dose: 200.0 mg/kg/injection, schedule: Q01DX009 (ip), vehicle: other 102 % of control | endpoint: mean survival time, dose: 400.0 mg/kg/injection, schedule: Q01DX009 (ip), vehicle: other 101 % of control

O=c1[nH]ccc(=S)[nH]1
inactive: endpoint: mean survival time, dose: 100.0 mg/kg/injection, schedule: Q01DX001 (ip), vehicle: saline with Tween-80 97 % of control | endpoint: mean survival time, dose: 200.0 mg/kg/injection, schedule: Q01DX001 (ip), vehicle: saline with Tween-80 88 % of control

CC(=O)Nc1ncnc2c1ncn2C1OC(COC(C)=O)C(NC(=O)C(F)(F)F)C1OC(C)=O (centres undefined)
inactive: endpoint: median survival time, dose: 12.5 mg/kg/injection, schedule: Q01DX005 (ip), vehicle: alkali diluted with saline 109 % of control | endpoint: median survival time, dose: 25.0 mg/kg/injection, schedule: Q01DX005 (ip), vehicle: alkali diluted with saline 102 % of control | endpoint: median survival time, dose: 50.0 mg/kg/injection, schedule: Q01DX005 (ip), vehicle: alkali diluted with saline 109 % of control | endpoint: median survival time, dose: 100.0 mg/kg/injection, schedule: Q01DX005 (ip), vehicle: alkali diluted with saline 107 % of control | endpoint: median survival time, dose: 200.0 mg/kg/injection, schedule: Q01DX005 (ip), vehicle: alkali diluted with saline 106 % of control

CCN1CCS(=O)(=O)C1=O
inactive: endpoint: mean survival time, dose: 75.0 mg/kg/injection, schedule: Q01DX001 (ip), vehicle: other 108 % of control | endpoint: mean survival time, dose: 150.0 mg/kg/injection, schedule: Q01DX001 (ip), vehicle: other 115 % of control

CN(C)N=Nc1ccc(C(=O)N/N=C/c2ccccc2[N+](=O)[O-])cc1
inactive: [2] 104 % of control | endpoint: mean survival time, dose: 200.0 mg/kg/injection, schedule: Q04DX003 (ip), vehicle: saline 101 % of control | endpoint: mean survival time, dose: 400.0 mg/kg/injection, schedule: Q04DX003 (ip), vehicle: saline 115 % of control

Cn1c(-c2ccccc2N=NN2CCCCC2)nc(=N)c2ccccc21
inactive: endpoint: mean survival time, dose: 6.25 mg/kg/injection, schedule: Q01DX005 (ip), vehicle: water 95 % of control | endpoint: mean survival time, dose: 12.5 mg/kg/injection, schedule: Q01DX005 (ip), vehicle: water 95 % of control

CN(C(=O)c1c(Cl)n(C)c2ccccc12)c1ccccc1
inactive: endpoint: mean survival time, dose: 25.0 mg/kg/injection, schedule: Q04DX003 (ip), vehicle: Klucel (hydroxypropylcellulose) (HPC) 98 % of control | endpoint: mean survival time, dose: 50.0 mg/kg/injection, schedule: Q04DX003 (ip), vehicle: Klucel (hydroxypropylcellulose) (HPC) 101 % of control | endpoint: mean survival time, dose: 100.0 mg/kg/injection, schedule: Q04DX003 (ip), vehicle: Klucel (hydroxypropylcellulose) (HPC) 104 % of control

CC(Cc1ccccc1)NC(C)Cc1ccccc1 (centres undefined)
inactive: [6] 98 % of control | [7] 102 % of control

NCc1ccccc1
inactive: [4] 96 % of control | endpoint: mean survival time, dose: 100.0 mg/kg/injection, schedule: Q04DX003 (ip), vehicle: acetone 110 % of control | [6] 99 % of control | [5] 100 % of control | endpoint: mean survival time, dose: 200.0 mg/kg/injection, schedule: Q04DX003 (ip), vehicle: acetone 108 % of control | [7] 99 % of control | [8] 98 % of control | endpoint: mean survival time, dose: 400.0 mg/kg/injection, schedule: Q04DX003 (ip), vehicle: acetone 97 % of control | [9] 97 % of control

COc1ccncn1
inactive: endpoint: mean survival time, dose: 100.0 mg/kg/injection, schedule: Q04DX002 (ip), vehicle: saline with Tween-80 98 % of control | endpoint: mean survival time, dose: 200.0 mg/kg/injection, schedule: Q04DX002 (ip), vehicle: saline with Tween-80 95 % of control | endpoint: mean survival time, dose: 400.0 mg/kg/injection, schedule: Q04DX002 (ip), vehicle: saline with Tween-80 106 % of control

CC1(C)N=C(N)N=C(N)N1c1ccc(C(=O)c2ccccc2)cc1
inactive: [6] 91 % of control

O=C(O)C1CCCN1C(=O)C(CSC(c1ccccc1)(c1ccccc1)c1ccccc1)NC(c1ccccc1)(c1ccccc1)c1ccccc1 (centres undefined)
inactive: endpoint: mean survival time, dose: 50.0 mg/kg/injection, schedule: Q01DX009 (ip), vehicle: saline 101 % of control | endpoint: mean survival time, dose: 100.0 mg/kg/injection, schedule: Q01DX009 (ip), vehicle: saline 97 % of control | endpoint: mean survival time, dose: 200.0 mg/kg/injection, schedule: Q01DX009 (ip), vehicle: saline 98 % of control | endpoint: mean survival time, dose: 400.0 mg/kg/injection, schedule: Q01DX009 (ip), vehicle: saline 97 % of control

CC(CN=Cc1ccccc1[O-])N=Cc1ccccc1[O-].[O]=[V] (centres undefined)
inactive: endpoint: mean survival time, dose: 5.0 mg/kg/injection, schedule: Q04DX003 (ip), vehicle: saline with Tween-80 90 % of control | endpoint: mean survival time, dose: 10.0 mg/kg/injection, schedule: Q04DX003 (ip), vehicle: saline with Tween-80 94 % of control | endpoint: mean survival time, dose: 20.0 mg/kg/injection, schedule: Q04DX003 (ip), vehicle: saline with Tween-80 90 % of control

COC(=O)C=P(c1ccccc1)(c1ccccc1)c1ccccc1
inactive: endpoint: mean survival time, dose: 6.25 mg/kg/injection, schedule: Q01DX009 (ip), vehicle: saline with Tween-80 97 % of control | endpoint: mean survival time, dose: 6.25 mg/kg/injection, schedule: Q04DX003 (ip), vehicle: saline with Tween-80 98 % of control | endpoint: mean survival time, dose: 12.5 mg/kg/injection, schedule: Q01DX009 (ip), vehicle: saline with Tween-80 103 % of control | endpoint: mean survival time, dose: 12.5 mg/kg/injection, schedule: Q04DX003 (ip), vehicle: saline with Tween-80 101 % of control | endpoint: mean survival time, dose: 25.0 mg/kg/injection, schedule: Q01DX009 (ip), vehicle: saline with Tween-80 97 % of control and 94 % of control | endpoint: mean survival time, dose: 25.0 mg/kg/injection, schedule: Q04DX003 (ip), vehicle: saline with Tween-80 95 % of control | [3] 95 % of control | [4] 100 % of control | [6] 97 % of control

CCCCCCCCN(C)N=Nc1ccc(C(N)=O)cc1
inactive: endpoint: mean survival time, dose: 79.0 mg/kg/injection, schedule: Q01DX009 (ip), vehicle: Klucel (hydroxypropylcellulose) (HPC) 104 % of control | endpoint: mean survival time, dose: 118.0 mg/kg/injection, schedule: Q01DX009 (ip), vehicle: Klucel (hydroxypropylcellulose) (HPC) 114 % of control | endpoint: mean survival time, dose: 175.0 mg/kg/injection, schedule: Q01DX009 (ip), vehicle: Klucel (hydroxypropylcellulose) (HPC) 117 % of control | endpoint: mean survival time, dose: 177.0 mg/kg/injection, schedule: Q01DX009 (ip), vehicle: Klucel (hydroxypropylcellulose) (HPC) 110 % of control | endpoint: mean survival time, dose: 266.0 mg/kg/injection, schedule: Q01DX009 (ip), vehicle: Klucel (hydroxypropylcellulose) (HPC) 122 % of control | [1] 113 % of control and 118 % of control

C[n+]1ccc2ccccc2c1SC1CCC2CC3CC2C1C3 (centres undefined)
inactive: endpoint: mean survival time, dose: 10.0 mg/kg/injection, schedule: Q01DX009 (iv), vehicle: methylcellulose (MC) 97 % of control | endpoint: mean survival time, dose: 20.0 mg/kg/injection, schedule: Q01DX009 (iv), vehicle: methylcellulose (MC) 97 % of control

CCNC(=S)NNc1ccccc1
inactive: [3] 103 % of control | [4] 100 % of control | [5] 88 % of control

O=C(O)C(NC1CCCCC1)c1ccccc1 (centres undefined)
inactive: [3] 95 % of control | [4] 103 % of control | [6] 92 % of control | [5] 92 % of control | [7] 93 % of control

CN(Cc1cnc2nc(N)nc(N)c2n1)c1ccc(C(=O)N[C@@H](CCC(=O)O)C(N)=O)cc1
inactive: endpoint: mean survival time, dose: 3.0 mg/kg/injection, schedule: Q01DX009 (ip), vehicle: sodium bicarbonate 98 % of control | endpoint: mean survival time, dose: 6.0 mg/kg/injection, schedule: Q01DX009 (ip), vehicle: sodium bicarbonate 100 % of control | endpoint: mean survival time, dose: 12.0 mg/kg/injection, schedule: Q01DX009 (ip), vehicle: sodium bicarbonate 111 % of control | endpoint: mean survival time, dose: 50.0 mg/kg/injection, schedule: Q01DX009 (ip), vehicle: sodium bicarbonate 114 % of control
